Experimental data as given in patent US20100041716A1, “[…] USE IN TREATING OR PREVENTING HYPERCHOLESTEROLEMIA” (MITOS PHARMACEUTICALS, INC., priority 2006, published 2010).

Experiments:
[1] = tested on: NAD(P) dependent steroid dehydrogenase-like (NSDHL); assay: Gene expression in white adipose tissue of mice, Affymetrix MOE430A 2.0 microarray; assay type: in vivo
Procedure: (§1) In a gene expression study, Tempol was administered to experimental mice at a dose of 5 g/kg of diet from 12 months through 15 months. Mice receiving the same diet without the addition of Tempol were used as a negative control. At the age of 15 months, the white adipose tissue of the experimental animals was obtained. The expression of a broad spectrum of genes in the adipose tissue was assessed using chip-based microarray technology. Specifically, in this case an Affymetrix MOE430A 2.0 array, containing 12,960 genes, was employed. Such chips are well known in the art and are widely used to assess gene expression.

[2] = tested on: farnesyl diphosphate synthase (FDPS); assay: as above; assay type: in vivo
Procedure: as §1

[3] = tested on: lanosterol synthase (LSS); assay: as above; assay type: in vivo
Procedure: as §1

FDPS = assay: Protein level in patient after Tempol treatment; assay type: in vivo, human; details: 1500 mg per day for 180 days
Procedure: (§2) A 70-kilogram patient having levels of fasting plasma total cholesterol indicative of hypercholesterolemia is administered a dose of 1500 mg of Tempol per day for 180 days. This may be administered in a single dose, or may be administered as a number of smaller doses over a 24-hour period: for example, three 500-mg doses at eight-hour intervals. Following treatment, the protein level of each of LSS, FDPS, and NSDHL is reduced.
as §2, with “at risk for developing” for “having levels of fasting plasma total cholesterol indicative of”

LSS = assay: Protein level in patient after Tempol treatment; assay type: in vivo, human; details: 1500 mg per day for 180 days
Procedure: as §2
as §2, with “at risk for developing” for “having levels of fasting plasma total cholesterol indicative of”

NSDHL = assay: Protein level in patient after Tempol treatment; assay type: in vivo, human; details: 1500 mg per day for 180 days
Procedure: as §2
as §2, with “at risk for developing” for “having levels of fasting plasma total cholesterol indicative of”

[4] = adipose tissue of mice treated with Tempol
[5] = Example 1: 70-kilogram patient with hypercholesterolemia
[6] = Example 2: 70-kilogram patient at risk for hypercholesterolemia

With `CC1(C)CC(O)CC(C)(C)N1[O]` [Tempol, 4-hydroxy-2,2,6,6-tetramethylpiperidine-1-oxyl] the Fold change ([1]; NSDHL expression, Tempol-treated vs control mice, white adipose tissue) was −1.64, the “Mean (Tempol-treated mice)” value ([1]; NSDHL expression, white adipose tissue, 5 g/kg of diet from 12 through 15 months) was 1398 and the “expression of NSHDL decreased” value [1, 4] was 1.64 fold. For the same molecule, the Fold change ([2]; FDPS expression, Tempol-treated vs control mice, white adipose tissue) was −2.08, the “Mean (Tempol-treated mice)” value ([2]; FDPS expression, white adipose tissue, 5 g/kg of diet from 12 through 15 months) was 1274 and the “expression of FDPS decreased” value [2, 4] was 2.08 fold. The Fold change ([3]; LSS expression, Tempol-treated vs control mice, white adipose tissue) was −2.33, the “Mean (Tempol-treated mice)” value ([3]; LSS expression, white adipose tissue, 5 g/kg of diet from 12 through 15 months) was 224 and the “expression of LSS decreased” value [3, 4] was 2.33 fold. The “protein level of FDPS” value (FDPS; [5]) was “reduced”, the “protein level of FDPS” value (FDPS; [6]) was “reduced” and the “protein level of LSS” value (LSS; [5]) was “reduced”. For the same molecule, the “protein level of LSS” value (LSS; [6]) was “reduced”, the “protein level of NSDHL” value (NSDHL; [5]) was “reduced” and the “protein level of NSDHL” value (NSDHL; [6]) was “reduced”.
